From patent publication US9388140B2, “Substituted benzimidazoles” (priority 2011, dated 2016)

Target: human kinase Mps-1 (Homo sapiens (Human), UniProt P33981)
Assay: Mps-1 kinase assay (TR-FRET)
Format: biochemical
Conditions: not given
Procedure: The human kinase Mps-1 phosphorylates a biotinylated substrate peptide. Detection of the phosphorylated product is achieved by time-resolved fluorescence resonance energy transfer (TR-FRET) from Europium-labelled anti-phospho-Serine/Threonine antibody as donor to streptavidin labelled with cross-linked allophycocyanin (SA-XLent) as acceptor. Compounds are tested for their inhibition of the kinase activity.
N-terminally GST-tagged human full length recombinant Mps-1 kinase (purchased from Invitrogen, Karslruhe, Germany, cat. no PV4071) was used. As substrate for the kinase reaction a biotinylated peptide of the amino-acid sequence […] (C-terminus in amide form, purchased from Biosynthan GmbH, Berlin) was used.
The concentration of Mps-1 in the assay was adjusted to the activity of the enzyme lot and was chosen appropriate to have the assay in the linear range, typical enzyme concentrations were in the range of about 1 nM (final conc. in the 5 μl assay volume).
The resulting mixture was incubated 1 h at 22° C. to allow the binding of the phosphorylated peptide to the anti-phospho(Ser/Thr)-Europium-antibody. Subsequently the amount of phosphorylated substrate was evaluated by measurement of the resonance energy transfer from the Europium-labelled anti-phospho(Ser/Thr) antibody to the Streptavidin-XLent.

Chain of human kinase Mps-1 (P33981 whole entry): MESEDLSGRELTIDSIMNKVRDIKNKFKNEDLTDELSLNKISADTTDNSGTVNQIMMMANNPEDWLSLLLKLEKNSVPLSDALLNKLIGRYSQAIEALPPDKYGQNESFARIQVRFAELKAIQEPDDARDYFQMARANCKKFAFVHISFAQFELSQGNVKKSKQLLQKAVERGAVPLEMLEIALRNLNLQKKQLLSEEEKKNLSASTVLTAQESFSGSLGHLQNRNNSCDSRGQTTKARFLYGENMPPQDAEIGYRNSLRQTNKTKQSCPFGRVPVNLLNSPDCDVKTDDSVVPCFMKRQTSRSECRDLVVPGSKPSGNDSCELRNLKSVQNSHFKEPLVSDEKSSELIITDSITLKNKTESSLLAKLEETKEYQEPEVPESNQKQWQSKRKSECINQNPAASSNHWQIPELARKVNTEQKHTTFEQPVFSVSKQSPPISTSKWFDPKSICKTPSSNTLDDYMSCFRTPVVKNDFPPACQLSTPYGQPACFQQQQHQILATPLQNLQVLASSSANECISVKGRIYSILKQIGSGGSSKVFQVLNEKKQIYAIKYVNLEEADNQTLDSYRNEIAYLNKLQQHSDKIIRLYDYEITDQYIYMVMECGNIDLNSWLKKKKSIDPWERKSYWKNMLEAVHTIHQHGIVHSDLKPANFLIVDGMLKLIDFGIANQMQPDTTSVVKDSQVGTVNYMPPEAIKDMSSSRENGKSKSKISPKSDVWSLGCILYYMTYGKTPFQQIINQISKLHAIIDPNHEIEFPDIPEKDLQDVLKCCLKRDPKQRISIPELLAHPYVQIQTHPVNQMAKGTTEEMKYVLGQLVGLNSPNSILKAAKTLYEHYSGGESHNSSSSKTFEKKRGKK

Structure (SMILES) | IC50 [nM]
O=C(NC1CC1)c1ccc(-n2cnc3c(NCCC(F)(F)F)cc(Oc4cccc(F)c4F)cc32)cc1 [Example 36, N-cyclopropyl-4-{6-(2,3-difluorophenoxy)-4-[(3,3,3-trifluoropropyl)amino]-1H-benzimidazol-1-yl}benzamide] | 0.4
O=C(NC1CC1)c1ccc(-n2cnc3c(NCCC(F)(F)F)cc(Oc4ccccc4)cc32)cc1 [Example 37, N-cyclopropyl-4-{6-phenoxy-4-[(3,3,3-trifluoropropyl)amino]-1H-benzimidazol-1-yl}benzamide] | 0.5

Same assay, conditions: N-terminally GST-tagged human full length recombinant Mps-1; 10 μM ATP; 1 μM biotinylated peptide substrate; read-out: Mps1 IC50

Structure (SMILES) | IC50 [nM]
CCNC(=O)c1ccc(-n2cnc3c(NCCC(F)(F)F)cc(-c4ccnn4C)cc32)cc1C [Example 31, N-ethyl-2-methyl-4-{6-(1-methyl-1H-pyrazol-5-yl)-4-[(3,3,3-trifluoropropyl)amino]-1H-benzimidazol-1-yl}benzamide] | 33
CNC(=O)c1ccc(-n2cnc3c(NCCC(F)(F)F)cc(-c4ccnn4C)cc32)cc1C [Example 32, N, 2-dimethyl-4-{6-(1-methyl-1H-pyrazol-5-yl)-4-[(3,3,3-trifluoropropyl)amino]-1H-benzimidazol-1-yl}benzamide] | 20.2
COc1ccc(Oc2cc(NCCC(F)(F)F)c3ncn(-c4ccc(C(=O)NC5CC5)c(C)c4)c3c2)cc1F [Example 33, N-cyclopropyl-4-{6-(3-fluoro-4-methoxyphenoxy)-4-[(3,3,3-trifluoropropyl)amino]-1H-benzimidazol-1-yl}-2-methylbenzamide] | 0.7
CCNC(=O)c1ccc(-n2cnc3c(NCCC(F)(F)F)cc(Oc4ccc(OC)c(F)c4)cc32)cc1C [Example 34, N-ethyl-4-{6-(3-fluoro-4-methoxyphenoxy)-4-[(3,3,3-trifluoropropyl)amino]-1H-benzimidazol-1-yl}-2-methylbenzamide] | 5.8
CNC(=O)c1ccc(-n2cnc3c(NCCC(F)(F)F)cc(Oc4ccc(OC)c(F)c4)cc32)cc1C [Example 35, 4-{6-(3-Fluoro-4-methoxyphenoxy)-4-[(3,3,3-trifluoropropyl)amino]-1H-benzimidazol-1-yl}-N,2-dimethylbenzamide] | 3.9
COc1ccc(Oc2cc(NCCC(F)(F)F)c3ncn(-c4ccc(C(=O)NC5CC5)cc4)c3c2)cc1F [Example 38, N-cyclopropyl-4-{6-(3-fluoro-4-methoxyphenoxy)-4-[(3,3,3-trifluoropropyl)amino]-1H-benzimidazol-1-yl}benzamide] | 0.4
CNC(=O)c1ccc(-n2cnc3c(NCCC(F)(F)F)cc(Oc4ccccc4OC)cc32)cc1C [Example 39, 4-{6-(2-Methoxyphenoxy)-4-[(3,3,3-trifluoropropyl)amino]-1H-benzimidazol-1-yl}-N, 2-dimethylbenzamide] | 43.3
CCNC(=O)c1ccc(-n2cnc3c(NCCC(F)(F)F)cc(Oc4ccccc4OC)cc32)cc1C [Example 40, N-ethyl-4-{6-(2-methoxyphenoxy)-4-[(3,3,3-trifluoropropyl)amino]-1H-benzimidazol-1-yl}-2-methylbenzamide] | 58.2
COc1ccccc1Oc1cc(NCCC(F)(F)F)c2ncn(-c3ccc(C(=O)NC4CC4)c(C)c3)c2c1 [Example 41, N-cyclopropyl-4-{6-(2-methoxyphenoxy)-4-[(3,3,3-trifluoropropyl)amino]-1H-benzimidazol-1-yl}-2-methylbenzamide] | 10.1
CNC(=O)c1ccc(-n2cnc3c(NCC4CCOCC4)cc(Oc4ccc(OC)c(F)c4)cc32)cc1C [Example 42, 4-{6-(3-Fluoro-4-methoxyphenoxy)-4-[(tetrahydro-2H-pyran-4-ylmethyl)amino]-1H-benzimidazol-1-yl}-N,2-dimethylbenzamide] | 4.9
CCNC(=O)c1ccc(-n2cnc3c(NCC4CCOCC4)cc(Oc4ccc(OC)c(F)c4)cc32)cc1C [Example 43, N-ethyl-4-{6-(3-fluoro-4-methoxyphenoxy)-4-[(tetrahydro-2H-pyran-4-ylmethyl)amino]-1H-benzimidazol-1-yl}-2-methylbenzamide] | 4
